Experimental data as given in PubChem BioAssay AID2060895 (Molecular Pharmacology Branch, DTP, NCI, 2025).

System: PDC 899932-113-R3-J6 complex spheroid viability
Assay: Anticancer human tumor 899932-113-R3-J6-PDC patient-derived melanoma cell line growth inhibition [RAS]
Details: for IC50: curve of first compound; for viability, T/C: stronger effect = lower value; active = viability on the fitted dose curve at most 10% of control; inactive = the rest
Outline: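 Agents were tested in combination matrices in half-log decrements from a top concentration at or near clinical Cmax (10 microM if undetermined). Targets were multi-cell spheroids of tumour lines plus HUVEC and MSC stromal cells.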

[1] = second compound 0.000949 µM, first compound 0.0316 µM
[2] = second compound 0.000949 µM, first compound 0.1 µM
[3] = second compound 0.000949 µM, first compound 0.316 µM
[4] = second compound 0.000949 µM, first compound 1 µM
[5] = second compound 0.000949 µM, first compound 3.16 µM
[6] = second compound 0.000949 µM, first compound 10 µM
[7] = second compound 0.003 µM, first compound 0.0316 µM
[8] = second compound 0.003 µM, first compound 0.1 µM
[9] = second compound 0.003 µM, first compound 0.316 µM
[10] = second compound 0.003 µM, first compound 1 µM
[11] = second compound 0.003 µM, first compound 3.16 µM
[12] = second compound 0.003 µM, first compound 10 µM
[13] = second compound 0.00949 µM, first compound 0.0316 µM
[14] = second compound 0.00949 µM, first compound 0.1 µM
[15] = second compound 0.00949 µM, first compound 0.316 µM
[16] = second compound 0.00949 µM, first compound 1 µM
[17] = second compound 0.00949 µM, first compound 3.16 µM
[18] = second compound 0.00949 µM, first compound 10 µM
[19] = second compound 0.03 µM, first compound 0.0316 µM
[20] = second compound 0.03 µM, first compound 0.1 µM
[21] = second compound 0.03 µM, first compound 0.316 µM
[22] = second compound 0.03 µM, first compound 1 µM
[23] = second compound 0.03 µM, first compound 3.16 µM
[24] = second compound 0.03 µM, first compound 10 µM
[25] = second compound 0.0949 µM, first compound 0.0316 µM
[26] = second compound 0.0949 µM, first compound 0.1 µM
[27] = second compound 0.0949 µM, first compound 0.316 µM
[28] = second compound 0.0949 µM, first compound 1 µM
[29] = second compound 0.0949 µM, first compound 3.16 µM
[30] = second compound 0.0949 µM, first compound 10 µM
[31] = second compound 0.3 µM, first compound 0.0316 µM
[32] = second compound 0.3 µM, first compound 0.1 µM
[33] = second compound 0.3 µM, first compound 0.316 µM
[34] = second compound 0.3 µM, first compound 1 µM
[35] = second compound 0.3 µM, first compound 3.16 µM
[36] = second compound 0.3 µM, first compound 10 µM
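Throughout, for viability, T/C: spheroids exposed to agents for seven days before readout; 100% = DMSO vehicle control wells.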

CC1(O)CCCC1n1c(=O)c(C(F)F)cc2cnc(NC3CCN(S(C)(=O)=O)CC3)nc21 (stereo not given) + CCn1c(-c2cc(N3CCN(C)CC3)cnc2C(C)OC)c2c3cc(ccc31)-c1csc(n1)CC(NC(=O)C1CC1C)C(=O)N1CCCC(N1)C(=O)OCC(C)(C)C2
active: viability, T/C [13] 4.88% | viability, T/C [14] 6.46% | viability, T/C [15] 7.99% | viability, T/C [16] 9.02% | viability, T/C [17] 8.75% | viability, T/C [18] 4.7% | viability, T/C [19] 2.99% | viability, T/C [20] 2.96% | viability, T/C [21] 3.21% | viability, T/C [22] 3.04% | viability, T/C [23] 3.2% | viability, T/C [24] 1.24% | viability, T/C [25] 2.41% | viability, T/C [26] 2.7% | viability, T/C [27] 2.57% | viability, T/C [28] 3.02% | viability, T/C [29] 2.41% | viability, T/C [30] 0.82% | viability, T/C [31] 1.98% | viability, T/C [32] 2.13% | viability, T/C [33] 2.07% | viability, T/C [34] 1.97% | viability, T/C [35] 2.39% | viability, T/C [36] 0.63%
< 31.6 nM: IC50 (second compound 0.003 µM) | IC50 (second compound 0.00949 µM) | IC50 (second compound 0.03 µM) | IC50 (second compound 0.0949 µM) | IC50 (second compound 0.3 µM)
inactive: viability, T/C [1] 77.9% | viability, T/C [2] 54.2% | viability, T/C [3] 49.5% | viability, T/C [4] 39.3% | viability, T/C [5] 37.1% | viability, T/C [6] 27.2% | viability, T/C [7] 41.5% | viability, T/C [8] 33% | viability, T/C [9] 27.5% | viability, T/C [10] 25.6% | viability, T/C [11] 26.6% | viability, T/C [12] 14.1%
239 nM: IC50 (second compound 0.000949 µM)

CCC(CC)c1cc(NC2CCC(N)C2)n2nccc2n1 (stereo not given) + CCn1c(-c2cc(N3CCN(C)CC3)cnc2C(C)OC)c2c3cc(ccc31)-c1csc(n1)CC(NC(=O)C1CC1C)C(=O)N1CCCC(N1)C(=O)OCC(C)(C)C2
< 31.6 nM: IC50 (second compound 0.003 µM) | IC50 (second compound 0.00949 µM) | IC50 (second compound 0.03 µM) | IC50 (second compound 0.0949 µM) | IC50 (second compound 0.3 µM)
active: viability, T/C [5] 0.22% | viability, T/C [6] 0.15% | viability, T/C [11] 0.58% | viability, T/C [12] 0.66% | viability, T/C [13] 3.22% | viability, T/C [14] 4.26% | viability, T/C [15] 3.48% | viability, T/C [16] 4.75% | viability, T/C [17] 0.1% | viability, T/C [18] 0.59% | viability, T/C [19] 3.14% | viability, T/C [20] 3.12% | viability, T/C [21] 3.99% | viability, T/C [22] 2.67% | viability, T/C [23] 0.09% | viability, T/C [24] 0.83% | viability, T/C [25] 2.55% | viability, T/C [26] 2.58% | viability, T/C [27] 2.46% | viability, T/C [28] 1.27% | viability, T/C [29] 0.74% | viability, T/C [30] 0.84% | viability, T/C [31] 2.43% | viability, T/C [32] 3.04% | viability, T/C [33] 2.55% | viability, T/C [34] 1.37% | viability, T/C [35] 0.48% | viability, T/C [36] 0.89%
inactive: viability, T/C [1] 69.1% | viability, T/C [2] 73.5% | viability, T/C [3] 64.5% | viability, T/C [4] 53.2% | viability, T/C [7] 28.8% | viability, T/C [8] 28.2% | viability, T/C [9] 26.5% | viability, T/C [10] 16.3%
1070 nM: IC50 (second compound 0.000949 µM)

CCN1CCN(Cc2ccc(Nc3ncc(F)c(-c4cc(F)c5nc(C)n(C(C)C)c5c4)n3)nc2)CC1 + CCn1c(-c2cc(N3CCN(C)CC3)cnc2C(C)OC)c2c3cc(ccc31)-c1csc(n1)CC(NC(=O)C1CC1C)C(=O)N1CCCC(N1)C(=O)OCC(C)(C)C2
< 3.16 nM: IC50 (second compound 0.003 µM) | IC50 (second compound 0.00949 µM) | IC50 (second compound 0.03 µM) | IC50 (second compound 0.0949 µM) | IC50 (second compound 0.3 µM)
inactive: viability, T/C (second compound 0.000949 µM, first compound 0.00316 µM) 80.5% | viability, T/C (second compound 0.000949 µM, first compound 0.01 µM) 75.5% | viability, T/C [1] 75.2% | viability, T/C [2] 63.3% | viability, T/C [3] 43.7% | viability, T/C [4] 18.3% | viability, T/C (second compound 0.003 µM, first compound 0.00316 µM) 38.1% | viability, T/C (second compound 0.003 µM, first compound 0.01 µM) 39.2% | viability, T/C [7] 33.3% | viability, T/C [8] 30.1% | viability, T/C [9] 23.8% | viability, T/C [10] 10.2%
220 nM: IC50 (second compound 0.000949 µM)
active: viability, T/C (second compound 0.00949 µM, first compound 0.00316 µM) 4.63% | viability, T/C (second compound 0.00949 µM, first compound 0.01 µM) 4.32% | viability, T/C [13] 4.31% | viability, T/C [14] 3.66% | viability, T/C [15] 5.16% | viability, T/C [16] 6.09% | viability, T/C (second compound 0.03 µM, first compound 0.00316 µM) 3.02% | viability, T/C (second compound 0.03 µM, first compound 0.01 µM) 2.66% | viability, T/C [19] 2.79% | viability, T/C [20] 2.48% | viability, T/C [21] 3.21% | viability, T/C [22] 2.94% | viability, T/C (second compound 0.0949 µM, first compound 0.00316 µM) 2.31% | viability, T/C (second compound 0.0949 µM, first compound 0.01 µM) 2.1% | viability, T/C [25] 2.15% | viability, T/C [26] 2.33% | viability, T/C [27] 2.24% | viability, T/C [28] 2.47% | viability, T/C (second compound 0.3 µM, first compound 0.00316 µM) 1.97% | viability, T/C (second compound 0.3 µM, first compound 0.01 µM) 2.12% | viability, T/C [31] 2.2% | viability, T/C [32] 2.05% | viability, T/C [33] 1.76% | viability, T/C [34] 2.01%

Cc1nc(N2CCC3(CC2)COC(C)C3N)c(CO)nc1Sc1ccnc(N)c1Cl (stereo not given) + CCn1c(-c2cc(N3CCN(C)CC3)cnc2C(C)OC)c2c3cc(ccc31)-c1csc(n1)CC(NC(=O)C1CC1C)C(=O)N1CCCC(N1)C(=O)OCC(C)(C)C2
active: viability, T/C [13] 3.52% | viability, T/C [14] 3.03% | viability, T/C [15] 2.45% | viability, T/C [16] 2.29% | viability, T/C [17] 2.72% | viability, T/C [18] 2.76% | viability, T/C [19] 2.9% | viability, T/C [20] 2.41% | viability, T/C [21] 2.2% | viability, T/C [22] 2.42% | viability, T/C [23] 1.4% | viability, T/C [24] 1.8% | viability, T/C [25] 2.84% | viability, T/C [26] 2.97% | viability, T/C [27] 1.92% | viability, T/C [28] 2.03% | viability, T/C [29] 1.67% | viability, T/C [30] 0.79% | viability, T/C [31] 2.22% | viability, T/C [32] 2.77% | viability, T/C [33] 1.95% | viability, T/C [34] 2.27% | viability, T/C [35] 1.64% | viability, T/C [36] 1.71%
> 10000 nM: IC50 (second compound 0.000949 µM)
inactive: viability, T/C [1] 70.1% | viability, T/C [2] 71.2% | viability, T/C [3] 76.8% | viability, T/C [4] 78.6% | viability, T/C [5] 80% | viability, T/C [6] 83% | viability, T/C [7] 29.8% | viability, T/C [8] 29.9% | viability, T/C [9] 30.1% | viability, T/C [10] 31.8% | viability, T/C [11] 38.8% | viability, T/C [12] 35.3%
< 31.6 nM: IC50 (second compound 0.003 µM) | IC50 (second compound 0.00949 µM) | IC50 (second compound 0.03 µM) | IC50 (second compound 0.0949 µM) | IC50 (second compound 0.3 µM)

NC1c2ccccc2OC12CCN(c1cnc3c(N4CCCc5ncccc54)n[nH]c3n1)CC2 (stereo not given) + CCn1c(-c2cc(N3CCN(C)CC3)cnc2C(C)OC)c2c3cc(ccc31)-c1csc(n1)CC(NC(=O)C1CC1C)C(=O)N1CCCC(N1)C(=O)OCC(C)(C)C2
> 10000 nM: IC50 (second compound 0.000949 µM)
active: viability, T/C [13] 2.82% | viability, T/C [14] 2.7% | viability, T/C [15] 2% | viability, T/C [16] 2.89% | viability, T/C [17] 3.55% | viability, T/C [18] 4.09% | viability, T/C [19] 2.17% | viability, T/C [20] 1.67% | viability, T/C [21] 1.01% | viability, T/C [22] 0.93% | viability, T/C [23] 0.99% | viability, T/C [24] 2.33% | viability, T/C [25] 1.84% | viability, T/C [26] 1.61% | viability, T/C [27] 0.9% | viability, T/C [28] 0.51% | viability, T/C [29] 0.3% | viability, T/C [30] 1.08% | viability, T/C [31] 1.87% | viability, T/C [32] 2.01% | viability, T/C [33] 1.11% | viability, T/C [34] 0.31% | viability, T/C [35] 0.4% | viability, T/C [36] 0.35%
inactive: viability, T/C [1] 72.7% | viability, T/C [2] 64.5% | viability, T/C [3] 79.9% | viability, T/C [4] 73.4% | viability, T/C [5] 81% | viability, T/C [6] 70.2% | viability, T/C [7] 31.8% | viability, T/C [8] 27.1% | viability, T/C [9] 34.3% | viability, T/C [10] 38% | viability, T/C [11] 38.2% | viability, T/C [12] 12.4%
< 31.6 nM: IC50 (second compound 0.003 µM) | IC50 (second compound 0.00949 µM) | IC50 (second compound 0.03 µM) | IC50 (second compound 0.0949 µM) | IC50 (second compound 0.3 µM)
